In ChEMBL document CHEMBL4118135, “Optimized allosteric inhibition of engineered protein tyrosine phosphatases with an expanded palette of biarsenical small molecules” (Bioorg Med Chem, 2018):
Substitutions are numbered along the chain they refer to. Activity calls are given as the source filed them. No cut-off for these calls is given here.

Columns and labels:
[1] = biological target: T1, Tyrosine-protein phosphatase non-receptor type 1 (Homo sapiens) (UniProt P18031); assay: Inhibition of His6-tagged human wild-type PTP1B catalytic domain at 500 nM using DADEpYLIPQQG as substrate incubated for 90 mins by continuous phosphatase activity assay
T1 sequence (whole entry): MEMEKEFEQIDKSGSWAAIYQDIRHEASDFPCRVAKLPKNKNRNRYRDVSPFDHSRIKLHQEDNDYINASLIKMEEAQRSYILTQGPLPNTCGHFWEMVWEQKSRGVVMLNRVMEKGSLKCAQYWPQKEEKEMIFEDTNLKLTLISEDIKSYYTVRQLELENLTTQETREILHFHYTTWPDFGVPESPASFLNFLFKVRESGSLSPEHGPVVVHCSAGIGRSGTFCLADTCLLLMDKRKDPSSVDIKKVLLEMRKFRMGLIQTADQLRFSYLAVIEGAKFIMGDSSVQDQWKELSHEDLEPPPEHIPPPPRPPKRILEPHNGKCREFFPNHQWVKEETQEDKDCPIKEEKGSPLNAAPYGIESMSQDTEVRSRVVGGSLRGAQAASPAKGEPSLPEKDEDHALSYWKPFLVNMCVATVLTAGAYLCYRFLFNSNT

[2] = biological target: T1, Tyrosine-protein phosphatase non-receptor type 1 (Homo sapiens); assay: Binding affinity to His6-tagged human wild-type PTP1B catalytic domain overexpressed in Escherichia coli BL21(DE3) cells at 100 uM using pNPP as substrate after 90 mins by SDS-PAGE analysis
[3] = biological target: T1, Tyrosine-protein phosphatase non-receptor type 1 (Homo sapiens); assay: Inhibition of His6-tagged human wild-type PTP1B catalytic domain overexpressed in Escherichia coli crude cell lysate using pNPP as substrate incubated for 90 mins by quenched phosphatase activity assay
[4] = system: T2, Tyrosine-protein phosphatase non-receptor type 1 (Homo sapiens), P18031 [P87C,A122C]; assay: Inhibition of allosterically sensitized His6-tagged human PTP1B catalytic domain P87C/A122C mutant at 500 nM using DADEpYLIPQQG as substrate incubated for 90 mins by continuous phosphatase activity assay
T2 sequence (whole entry): T1 sequence (whole entry) with P87C, A122C

[5] = system: T2, Tyrosine-protein phosphatase non-receptor type 1 (Homo sapiens), P18031 [P87C,A122C]; assay: Binding affinity to allosterically sensitized His6-tagged human PTP1B catalytic domain P87C/A122C mutant overexpressed in Escherichia coli BL21(DE3) cells at 25 to 100 uM after 90 mins by SDS-PAGE and LC-MS/MS method
[6] = system: T2, Tyrosine-protein phosphatase non-receptor type 1 (Homo sapiens), P18031 [P87C,A122C]; assay: Inhibition of allosterically sensitized His6-tagged human PTP1B catalytic domain P87C/A122C mutant at 2000 nM using pNPP as substrate incubated for =
[7] = system: T3, Tyrosine-protein phosphatase non-receptor type 7 (Homo sapiens), P35236 [P171C,V205C]; assay: Binding affinity to allosterically sensitized mutant form of His6-tagged human HePTP catalytic domain overexpressed in Escherichia coli crude cell lysate at 100 uM after 90 mins by SDS-PAGE analysis
T3 sequence (whole entry): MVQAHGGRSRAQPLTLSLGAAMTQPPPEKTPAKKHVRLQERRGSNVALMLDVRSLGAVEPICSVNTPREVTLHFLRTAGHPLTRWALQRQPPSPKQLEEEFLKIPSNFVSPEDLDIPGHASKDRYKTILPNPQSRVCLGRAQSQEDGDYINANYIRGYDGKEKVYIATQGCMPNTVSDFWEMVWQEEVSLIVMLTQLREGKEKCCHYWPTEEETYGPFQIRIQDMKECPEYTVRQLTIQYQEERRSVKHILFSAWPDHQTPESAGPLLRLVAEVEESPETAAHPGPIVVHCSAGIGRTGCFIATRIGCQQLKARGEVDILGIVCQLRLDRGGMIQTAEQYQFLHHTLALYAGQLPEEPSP

[8] = system: Tyrosine-protein phosphatase non-receptor type 7 (Homo sapiens), P35236 [UNDEFINED MUTATION]; assay: Inhibition of allosterically sensitized mutant form of His6-tagged human wild-type HePTP catalytic domain at 1.92 uM using pNPP as substrate incubated for 90 mins by quenched phosphatase activity assay
Sequence of Tyrosine-protein phosphatase non-receptor type 7 (Homo sapiens), P35236 [UNDEFINED MUTATION] (P35236 whole entry, looked up, stated change not applied, the tested form may be a part): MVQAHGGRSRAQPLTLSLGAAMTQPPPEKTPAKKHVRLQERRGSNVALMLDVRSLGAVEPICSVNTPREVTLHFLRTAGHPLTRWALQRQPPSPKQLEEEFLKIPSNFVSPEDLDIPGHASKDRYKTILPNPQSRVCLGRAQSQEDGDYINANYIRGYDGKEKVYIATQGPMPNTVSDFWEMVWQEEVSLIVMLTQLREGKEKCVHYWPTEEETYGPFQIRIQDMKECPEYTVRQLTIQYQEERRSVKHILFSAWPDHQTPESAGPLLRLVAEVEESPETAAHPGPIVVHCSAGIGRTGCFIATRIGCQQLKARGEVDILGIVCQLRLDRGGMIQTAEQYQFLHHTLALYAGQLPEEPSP

[9] = biological target: T4, Tyrosine-protein phosphatase non-receptor type 7 (Homo sapiens) (UniProt P35236); assay: Inhibition of His6-tagged wild type human HePTP catalytic domain overexpressed in Escherichia coli BL21(DE3) cells at 25 uM using pNPP as substrate incubated for 90 mins by quenched phosphatase activity assay
T4 sequence (whole entry): T3 sequence (whole entry) with C171P, C205V

[10] = biological target: T4, Tyrosine-protein phosphatase non-receptor type 7 (Homo sapiens); assay: Inhibition of His6-tagged human wild-type HePTP catalytic domain overexpressed in Escherichia coli crude cell lysate at 2000 nM using pNPP as substrate incubated for 90 mins by quenched phosphatase activity assay

Compound | inhibition [1] | Activity [2] | inhibition [3] | inhibition [4] | Activity [5] | inhibition [6] [%] | Activity [7] | inhibition [8] [%] | inhibition [9] | inhibition [10]
CC1(C)C(/C=C/C=C2/N(CCCCS(=O)(=O)O)c3ccc([As]4SCCS4)cc3C2(C)C)=[N+](CCCCS(=O)(=O)O)c2ccc([As]3SCCS3)cc21 | inactive | inactive | inactive | Active | Active | 50 |  |  |  | 
O=C(O)c1ccccc1-c1c2ccc(=O)c([As]3SCCS3)c-2oc2c([As]3SCCS3)c(O)ccc12 |  |  |  |  |  |  | inactive | 50 | inactive | inactive
